Data taken from patent publication US5859037A, “Sulfonylurea-glitazone combinations for diabetes” (Warner-Lambert Company, priority 1997, dated 1999).

Columns and labels:
Type in all cases: in vivo, patients
[1] = system: non-insulin dependent diabetes mellitus (NIDDM); assay: Patient disposition (withdrawal, completion); conditions: glyburide monotherapy
Text: This was a 12-month, double-blind, randomized, parallel-group, active-control, multicenter study design (FIG. 1). […] Patients could withdraw voluntarily at any time during the study or be withdrawn by the investigator because of significant adverse events or deterioration in health, poor compliance, pregnancy, or prolonged symptomatic hyperglycemia or persistent worsening or failure to improve glycemic control as monitored by FSG.

[2] = Safety: adverse events and clinical laboratory measurements; conditions: overall, all doses
Method: A complete physical examination and ECG were performed during screening and at the end of the study. Clinical laboratory parameters and vital signs including blood pressure were monitored throughout the study for safety reasons. Adverse events were recorded during clinic visits and evaluated by the investigator for intensity and relationship to study drug. Reduction in the daily dose of micronized glyburide could occur in cases of documented hypoglycemia.
All patients randomized to treatment were included in all safety evaluations.
Hypoglycemia, defined as an FSG <50 mg/dL (verified laboratory value), was to be recorded as an adverse event.
Adverse events that were treatment emergent (not present at baseline) are summarized in the following section using a modified COSTART dictionary. If, however, an adverse event present at baseline increased in intensity or frequency during treatment, the event was included in the summaries. Each patient reporting an adverse event was counted only once for that event regardless of the number of times the adverse event was reported. Associated adverse events were those considered by the investigator to be possibly, probably, or definitely related to study therapy.
Baseline clinical laboratory parameters were compared with values at the end of the study (last visit) to identify any abnormal trends. The percent of patients with increases or decreases in laboratory values were calculated based on the number of patients at risk for changes outside of the reference range; i.e., patients with low or high values at baseline were not considered at risk for a decrease or increase, respectively.
Laboratory results were then reviewed for these particular patients to determine which patients actually had clinically important changes in a given laboratory parameter.

[3] = system: total insulin and C-peptide; assay: Fasting total insulin and C-peptide in 52-week clinical study; conditions: ITT, Week 52; glyburide monotherapy (active control)
Method: This was a 12-month, double-blind, randomized, parallel-group, active-control, multicenter study design (FIG. 1). […] Secondary efficacy parameters included markers of glycemic homeostasis (insulin and C-peptide) and markers of lipid metabolism (total cholesterol, total triglycerides, HDL, VLDL, LDL (measured), free fatty acids, Lp(a), Apo A1, and Apo B). Efficacy analysis was performed on 2 patient populations, intent-to-treat and completers. […] Patients withdrawing from the study before Week 52 were included in the analysis using the LOCF procedure; the last measurement on treatment was substituted for the missing Week 52 measurement. The intent-to-treat patient sample was the primary sample for assessing efficacy. Completers comprised patients in the intent-to-treat sample who completed Week 52. The analysis of change from baseline to Week 52 was performed using analysis of covariance (ANCOVA). The primary model included effects due to treatment and center and baseline as covariate. Treatment-by-baseline and treatment-by-center interactions were also examined in supplemental models.

[4] = system: non-insulin dependent diabetes mellitus (NIDDM); assay: Glycemic control (FSG, HbA1c, responders) in 52-week double-blind clinical study; conditions: for Fasting Serum Glucose, Adjusted Mean Change From Baseline (SE) / Hemoglobin A1c, Adjusted Mean Change From Baseline (SE): glyburide monotherapy (active control)
Text: The method of treating diabetes employing a combination of a sulfonylurea and a glitazone has been established in a long-term controlled clinical evaluation. The study determined the efficacy and safety of troglitazone alone and in combination with the sulfonylurea glyburide for the treatment of non-insulin dependent diabetes mellitus (NIDDM). This study targeted the segment of the NIDDM population in which the disease state has progressed to a point where maximum doses of sulfonylureas no longer produce adequate glycemic control. […] Since the unstimulated (absence of sulfonylurea) insulin secretory capacity of the beta cells is very low in this population, reversing insulin resistance alone would be of partial benefit. Therefore, maintaining a level of stimulated insulin secretion with a sulfonylurea while adding troglitazone to improve insulin sensitivity could provide a level of glycemic control unattainable by either medication alone. […] Long-term safety was also an objective of this study, assessed by adverse events and clinical laboratory data. This was a 12-month, double-blind, randomized, parallel-group, active-control, multicenter study design (FIG. 1). […] The primary efficacy parameters included endpoints related to glucose homeostasis: FSG and HbA1c. The change from baseline in these parameters at Week 52 compared to active control (glyburide) was the primary measure of efficacy. For patients terminating early from the study, their last observation was carried forward (LOCF) to Week 52. A decrease in these parameters was indicative of an improvement in glycemic control. Efficacy analysis was performed on 2 patient populations, intent-to-treat and completers. […] Patients withdrawing from the study before Week 52 were included in the analysis using the LOCF procedure; the last measurement on treatment was substituted for the missing Week 52 measurement. The intent-to-treat patient sample was the primary sample for assessing efficacy. Completers comprised patients in the intent-to-treat sample who completed Week 52. The analysis of change from baseline to Week 52 was performed using analysis of covariance (ANCOVA). The primary model included effects due to treatment and center and baseline as covariate. Treatment-by-baseline and treatment-by-center interactions were also examined in supplemental models. For the primary comparisons of glyburide versus each combination, step-down tests for linear trend in dose response were performed based on the primary model. For the remaining primary pairwise comparisons of glyburide versus each monotherapy, t-tests were performed using the MSE from the analysis of covariance (with a Bonferroni-Holm adjustment). For all comparisons with glyburide, 95 confidence intervals are provided using Dunnett's test. […] For each patient, the baseline measurement for a given parameter was defined as the measurement at Week 0. […] The frequency distribution (number and percentage) of responders were provided by treatment group and visit. For the set of primary treatment comparisons concerning glyburide versus combination therapy, step-down comparisons of responders in each treatment group versus the glyburide group were performed by sequential application of the Cochran-Mantel-Haenszel (CMH) test for linear trend with study centers as strata. […] The CMH test for general association were also used to perform the secondary treatment comparisons as supplemental analysis.

[5] = ITT, Week 52, glyburide (active control)

For COc1ccc(Cl)cc1C(=O)NCCc1ccc(S(=O)(=O)NC(=O)NC2CCCCC2)cc1 [Glyburide], the “Withdrawn, Adverse Event, Number (%) of Patients” value [1] was 6 (7.6) Number (%) of Patients, the “Withdrawn, Lack of Efficacy, Number (%) of Patients” value [1] was 20 (25.3) Number (%) of Patients and the “withdrawal for lack of efficacy” value [1] was “Twenty-five”. For the same molecule, the “associated adverse events, incidence” value [2] was 10%, the “patients with adverse events” value [2] was 90% and the “C-Peptide, Adjusted Mean Change From Baseline (SE)” value [3] was -0.67 (0.07) ng/mL. For the same molecule, the “Total Insulin, Adjusted Mean Change From Baseline (SE)” value [3] was -1.45 (1.39) μIU/mL, the “Fasting Serum Glucose, Adjusted Mean Change From Baseline (SE)” value ([4]; Completers, Week 52) was 13.1 (8.6) mg/dL and the “Hemoglobin A1c, Adjusted Mean Change From Baseline (SE)” value ([4]; Completers, Week 52) was 0.78 (0.27) %. The “Fasting Serum Glucose, Adjusted Mean Change From Baseline (SE)” value ([4]; ITT, Week 52 (Month 12)) was 22.7 (6.9) mg/dL, the “≥30 mg/dL Reduction in FSG, Responders, N (%)” value [4, 5] was 10 (13) N (%) and the “≥1% Reduction in HbA1c, Responders, N (%)” value [4, 5] was 4 (5) N (%). For the same molecule, the “Hemoglobin A1c, Adjusted Mean Change From Baseline (SE)” value ([4]; ITT, Week 52) was 0.90 (0.20) %, the “Hemoglobin A1c, Adjusted Mean Change From Baseline (SE)” value ([4]; ITT, Week 52, listed as glyburide) was 0.90% and the “patients with HbA1c of ≤7%” value ([4]; Week 52, glyburide monotherapy) was 1%. For the same molecule, the “patients with HbA1c of ≤8%” value ([4]; end of study, glyburide (active control)) was 10%.
